# Test results: patent publication US20230278972A1, “SUBSTITUTED HALOALKYL SULFONANILIDE HERBICIDES” (FMC Corporation, priority 2020, published 2023)
# What was measured:
# Type in all cases: in vivo
# [1] = test system: Ryegrass, Italian (Italian ryegrass, Lolium multiflorum); test: Test A preemergence, Ryegrass, Italian; details: Preemergence; for Ryegrass, Italian plant response rating: 125 g ai/ha, visual injury on 0 to 100 scale (0 no effect, 100 complete control), approximately 10 days; for Plant response rating, Ryegrass, Italian: 500 g ai/ha, 0 to 100 scale (0 no effect, 100 complete control)
# How it was run: (§1)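 Formulated with a surfactant in a non-phytotoxic solvent, compounds are applied to loam–sand pots, either to bare soil immediately after seeding (preemergence) or to seedlings of 2 to 10 cm bearing one to two leaves (postemergence).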
# [2] = test system: ragweed (common ragweed, Ambrosia artemisiifolia); test: Test A preemergence, ragweed; details: Preemergence; for Ragweed plant response rating: 125 g ai/ha, visual injury on 0 to 100 scale (0 no effect, 100 complete control), approximately 10 days; for Plant response rating, Ragweed: 500 g ai/ha, 0 to 100 scale (0 no effect, 100 complete control)
# How it was run: as §1
# [3] = test system: blackgrass (Alopecurus myosuroides); test: Test A postemergence, blackgrass; details: Postemergence, 0 to 100 scale (0 no effect, 100 complete control); for Plant response rating, Blackgrass: 125 g ai/ha, visual injury approx. 10 days; for Blackgrass plant response rating: 500 g ai/ha, visual injury vs untreated controls after approx. 10 days
# How it was run: as §1
# kochia (Bassia scoparia) [4] = test: Test A preemergence, kochia; details: Preemergence; for Kochia plant response rating: 125 g ai/ha, visual injury on 0 to 100 scale (0 no effect, 100 complete control), approximately 10 days; for Plant response rating, Kochia: 500 g ai/ha, 0 to 100 scale (0 no effect, 100 complete control)
# How it was run: as §1
# [5] = test system: wheat (Triticum aestivum); test: Test A postemergence, wheat; details: Postemergence, 0 to 100 scale (0 no effect, 100 complete control); for Plant response rating, Wheat: 125 g ai/ha, visual injury approx. 10 days; for Wheat plant response rating: 500 g ai/ha, visual injury vs untreated controls after approx. 10 days
# How it was run: (§2)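 Barnyardgrass, wheat and galium were treated postemergence at the one- to two-leaf stage (2 to 10 cm) with chemicals formulated in non-phytotoxic solvent plus surfactant, grown in loam soil–sand pots. Pigweed was sown in the same blend and given a preemergence directed soil spray.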
# corn (Zea mays) = test: Test A postemergence, corn; details: Postemergence, 0 to 100 scale (0 no effect, 100 complete control); for Plant response rating, Corn: 125 g ai/ha, visual injury approx. 10 days; for Corn plant response rating: 500 g ai/ha, visual injury vs untreated controls after approx. 10 days
# How it was run: as §1
# kochia (Bassia scoparia) [6] = test: Test A postemergence, kochia; details: Postemergence, 0 to 100 scale (0 no effect, 100 complete control); for Plant response rating, Kochia: 125 g ai/ha, visual injury approx. 10 days; for Kochia plant response rating: 500 g ai/ha, visual injury vs untreated controls after approx. 10 days
# How it was run: as §1
# [7] = test system: galium (catchweed bedstraw, Galium aparine); test: Test A postemergence, galium; details: Postemergence, 0 to 100 scale (0 no effect, 100 complete control); for Plant response rating, Galium: 125 g ai/ha, visual injury approx. 10 days; for Galium plant response rating: 500 g ai/ha, visual injury vs untreated controls after approx. 10 days
# How it was run: as §2
# [8] = test system: pigweed (Amaranthus retroflexus); test: Test A postemergence, pigweed; details: Postemergence, 0 to 100 scale (0 no effect, 100 complete control); for Plant response rating, Pigweed: 125 g ai/ha, visual injury approx. 10 days; for Pigweed plant response rating: 500 g ai/ha, visual injury vs untreated controls after approx. 10 days
# How it was run: as §1
# [9] = test system: barnyardgrass (Echinochloa crus-galli); test: Test A postemergence, barnyardgrass; details: Postemergence, 0 to 100 scale (0 no effect, 100 complete control); for Plant response rating, Barnyardgrass: 125 g ai/ha, visual injury approx. 10 days; for Barnyardgrass plant response rating: 500 g ai/ha, visual injury vs untreated controls after approx. 10 days
# How it was run: as §2
# [10] = test system: barnyardgrass (Echinochloa crus-galli); test: Test A preemergence, barnyardgrass; details: Preemergence; for Barnyardgrass plant response rating: 125 g ai/ha, visual injury on 0 to 100 scale (0 no effect, 100 complete control), approximately 10 days; for Plant response rating, Barnyardgrass: 500 g ai/ha, 0 to 100 scale (0 no effect, 100 complete control)
# How it was run: as §1
# [11] = test system: Ryegrass, Italian (Italian ryegrass, Lolium multiflorum); test: Test A postemergence, Ryegrass, Italian; details: Postemergence, 0 to 100 scale (0 no effect, 100 complete control); for Plant response rating, Ryegrass, Italian: 125 g ai/ha, visual injury approx. 10 days; for Ryegrass, Italian plant response rating: 500 g ai/ha, visual injury vs untreated controls after approx. 10 days
# How it was run: as §1
# [12] = test system: Foxtail, Giant (giant foxtail, Setaria faberi); test: Test A preemergence, Foxtail, Giant; details: Preemergence; for Foxtail, Giant plant response rating: 125 g ai/ha, visual injury on 0 to 100 scale (0 no effect, 100 complete control), approximately 10 days; for Plant response rating, Foxtail, Giant: 500 g ai/ha, 0 to 100 scale (0 no effect, 100 complete control)
# How it was run: as §1
# [13] = test system: ragweed (common ragweed, Ambrosia artemisiifolia); test: Test A postemergence, ragweed; details: Postemergence, 0 to 100 scale (0 no effect, 100 complete control); for Plant response rating, Ragweed: 125 g ai/ha, visual injury approx. 10 days; for Ragweed plant response rating: 500 g ai/ha, visual injury vs untreated controls after approx. 10 days
# How it was run: as §1
# [14] = test system: pigweed (Amaranthus retroflexus); test: Test A preemergence, pigweed; details: for Pigweed plant response rating: 125 g ai/ha, visual injury on 0 to 100 scale (0 no effect, 100 complete control), approximately 10 days; for Plant response rating, Pigweed: 500 g ai/ha, 0 to 100 scale (0 no effect, 100 complete control)
# How it was run: as §2
# [15] = test system: Foxtail, Giant (giant foxtail, Setaria faberi); test: Test A postemergence, Foxtail, Giant; details: Postemergence, 0 to 100 scale (0 no effect, 100 complete control); for Plant response rating, Foxtail, Giant: 125 g ai/ha, visual injury approx. 10 days; for Foxtail, Giant plant response rating: 500 g ai/ha, visual injury vs untreated controls after approx. 10 days
# How it was run: as §1
Structure (SMILES),"Ryegrass, Italian plant response rating [1]","Plant response rating, Ryegrass, Italian [1]",Ragweed plant response rating [2],"Plant response rating, Ragweed [2]","Plant response rating, Blackgrass [3]",Blackgrass plant response rating [3],Kochia plant response rating (kochia (Bassia scoparia) [4]),"Plant response rating, Kochia (kochia (Bassia scoparia) [4])","Plant response rating, Wheat [5]",Wheat plant response rating [5],"Plant response rating, Corn (corn (Zea mays))",Corn plant response rating (corn (Zea mays)),"Plant response rating, Kochia (kochia (Bassia scoparia) [6])",Kochia plant response rating (kochia (Bassia scoparia) [6]),"Plant response rating, Galium [7]",Galium plant response rating [7],"Plant response rating, Pigweed [8]",Pigweed plant response rating [8],"Plant response rating, Barnyardgrass [9]",Barnyardgrass plant response rating [9],also measured
CCn1nc(C)cc(-c2cc(NS(=O)(=O)C(F)(F)F)c(C)cc2C)c1=O [Compound 68],90,100,30,90,70,70,70,90,70,80,10,20,10,50,50,80,20,50,60,80,"Barnyardgrass plant response rating [10]: 100; Plant response rating, Barnyardgrass [10]: 100; Plant response rating, Ryegrass, Italian [11]: 40; Ryegrass, Italian plant response rating [11]: 80; Foxtail, Giant plant response rating [12]: 100; Plant response rating, Foxtail, Giant [12]: 100; Plant response rating, Ragweed [13]: 50; Ragweed plant response rating [13]: 80; Pigweed plant response rating [14]: 70; Plant response rating, Pigweed [14]: 90; Plant response rating, Foxtail, Giant [15]: 20; Foxtail, Giant plant response rating [15]: 90"
Cc1cc(C)c(-c2cc(Br)nn(C)c2=O)cc1NS(=O)(=O)C(F)(F)F [Compound 69],100,100,50,90,0,50,70,90,60,70,10,20,40,60,60,70,70,90,0,80,"Barnyardgrass plant response rating [10]: 40; Plant response rating, Barnyardgrass [10]: 90; Plant response rating, Ryegrass, Italian [11]: 40; Ryegrass, Italian plant response rating [11]: 70; Foxtail, Giant plant response rating [12]: 100; Plant response rating, Foxtail, Giant [12]: 100; Plant response rating, Ragweed [13]: 60; Ragweed plant response rating [13]: 80; Pigweed plant response rating [14]: 80; Plant response rating, Pigweed [14]: 100; Plant response rating, Foxtail, Giant [15]: 80; Foxtail, Giant plant response rating [15]: 90"
COc1cc(-c2cc(NS(=O)(=O)C(F)(F)F)c(C)cc2C)c(=O)n(C)n1 [Compound 70],50,60,10,70,30,30,0,0,0,30,0,0,0,0,60,80,0,20,0,50,"Barnyardgrass plant response rating [10]: 90; Plant response rating, Barnyardgrass [10]: 100; Plant response rating, Ryegrass, Italian [11]: 0; Ryegrass, Italian plant response rating [11]: 0; Foxtail, Giant plant response rating [12]: 10; Plant response rating, Foxtail, Giant [12]: 90; Plant response rating, Ragweed [13]: 0; Ragweed plant response rating [13]: 0; Pigweed plant response rating [14]: 80; Plant response rating, Pigweed [14]: 80; Plant response rating, Foxtail, Giant [15]: 0; Foxtail, Giant plant response rating [15]: 20"
Cc1cc(C)c(-c2cc(C(F)(F)F)nn(C)c2=O)cc1NS(=O)(=O)C(F)(F)F [Compound 71],70,100,10,60,0,70,80,40,40,70,0,30,20,40,50,80,0,60,0,80,"Barnyardgrass plant response rating [10]: 0; Plant response rating, Barnyardgrass [10]: 100; Plant response rating, Ryegrass, Italian [11]: 70; Ryegrass, Italian plant response rating [11]: 80; Foxtail, Giant plant response rating [12]: 80; Plant response rating, Foxtail, Giant [12]: 100; Plant response rating, Ragweed [13]: 0; Ragweed plant response rating [13]: 0; Pigweed plant response rating [14]: 40; Plant response rating, Pigweed [14]: 60; Plant response rating, Foxtail, Giant [15]: 0; Foxtail, Giant plant response rating [15]: 90"
